Measured values: US4738971A, “N-aryl-1,2-dihydro-4-substituted-1-alkyl-2-oxo-quinoline-3-carboxamides” (priority 1981, dated 1988)
Read-outs that look alike come from different tables or passages of the source.

How the values were obtained:
[1] = tested on: carrageenan-induced edema; experiment: carrageenan edema test in rats; assay type: in vivo, rat (female Sprague-Dawley); settings: dose within the range 10-160 mg/kg p.o.
Excerpt: Another test, in which the effect of a drug corresponds to the effects obtained in the tests mentioned above, and which can therefore also be used, is the well-established carrageenan edema test in rats (5). Comparative evaluation of compounds of the present invention in the three tests mentioned has shown that compounds which increase the extent of the delayed hypersensitivity reaction in the pertussis vaccine pleurisy test and in the adjuvant arthritis test also increase the extent of carrageenan-induced edema in the carrageenan edema test, thus providing a further tool for the determination of enhancement of cell-mediated immunity.
This example illustrates the effect of the compounds of the general formula I in the carrageenan edema test in rats.
A modification of a method described in (5) was used. Female Sprague-Dawleyrats weighing 110-120 g was used. At least 10 animals were used in each experimental group. Foot edema was induced by injecting carrageenan in 0.9% NaCl into the plantar surface of the right hind paw of the rats.
The substances suspended in aqueous methocel solution 10 ml/kg were administered intragastrically 30 minutes before the injection of carrageenan. The control groups were given methocel solution 10 ml/kg.
Three hours after carrageenan injection the animals were killed. The hind feet were cut off and weighed. The difference in weight of the injected right paw and the uninjected left paw was called edema weight.
The effect of the substances was assessed by the edema weight expressed in percent after comparison with the control groups.

[2] = tested on: delayed hypersensitivity reaction (pertussis vaccine pleurisy); experiment: pertussis vaccine pleurisy test in rats; assay type: in vivo, rat (male Sprague-Dawley); settings: for change in vivo at 10 mg/kg: Rattus norvegicus, po, 48 h, read-out: Enhancement of the delayed hypersensitivity reaction assessed by the exudate vol.
Excerpt: A useful test for the evaluation of the effect of chemical compounds on the immune system is the pertussis vaccine pleurisy test in rats. Compounds which enhance the response in this delayed hypersensitivity reaction are considered to stimulate cell-mediated immunity (4).
This example illustrates the effect of the compounds of the general formula I in the pertussis vaccine pleurisy test.
Pertussis vaccine pleurisy is a useful test for the evaluation of the effect of chemical compounds on the immune system. Compounds which enhance the response in this delayed hypersensitivity reaction are considered to stimulate cell-mediated immunity.
A modification of a method described in (4) was used. Male Sprague-Dawley rats weighing 250-275 g were used. At least ten animals were used in each group.
Equal volumes of Freund's incomplete adjuvant and a suspension of heat killed Bordetella pertussis organisms were mixed. To sensitize animals, day 0, 0.2 ml of a mixture containing 0.036×10^10 organisms/ml was injected into the dorsal surface of one hind paw and one forepaw.
The animals were challenged on day 12 with 0.1 ml of a mixture containing 0.25×10^10 organisms/ml that was injected intrapleurally. 48 hours after challenge, day 14, the volume of the exudate in the pleural cavity was measured.
The substances suspended in aqueous methocel solution 10 ml/kg were given intragastrically once daily from day 10 to day 13. The control groups were given methocel solution 10 ml/kg.
The effect of the substances was assessed by the exudate volume expressed in percent after comparison with the control groups.

[3] = tested on: delayed hypersensitivity reaction (adjuvant arthritis, Mycobacterium butyricum); experiment: adjuvant arthritis test in rats; assay type: in vivo, rat (male Lister hooded); settings: for significant potentiating effect in the adjuvant arthritis test: 40 mg/kg p.o.
Excerpt: (§1) The adjuvant arthritis test in rats produces a measureable extent of a delayed hypersensitivity reaction and can be used for a determination of variations in the extent of the delayed hypersensitivity reaction upon drug administration to the host. An increase in the extent of the delayed hypersensitivity reaction upon drug administration consequently indicates enhanced cell-mediated immunity in the host.
This example illustrates the effect of the compounds of the general formula I in the adjuvant arthritis test in rats.
as §1, with “produces” for “produces a measureable extent of”, “variations” for “variations in the extent”
A modification of a method described in (12) was used. Male Lister hooded rats weighing 250-275 g were used. At least 9 animals were used in each experimental group.
A single intradermal injection of 0.5 mg/0.1 ml heat killed Mycobacterium butyricum suspended in sterile liquid paraffinum was given into the right hind foot of all rats. After this injection, day 0, the volume of the left hind paw, measured by water displacement, was followed to the end of the experiment.
The substances suspended in aqueous methocel solution 10 ml/kg were given intragastrically. The control group was given methocel solution 10 ml/kg. The different groups of animals were thus treated once daily from day -4 to day 14. The effect of the substances was assessed by the left foot volume expressed in percent after comparison with the control groups.

Structure (SMILES) | significant potentiation of the carrageenan edema [1] | significant enhancing effect in the pertussis vaccine pleurisy test ([2]; 10 mg/kg p.o.) | significant potentiating effect in the adjuvant arthritis test [3] | further results
CC(=O)Nc1ccc(N(C)C(=O)c2c(O)c3ccccc3n(C)c2=O)cc1 [20:35, N-(4-acetylaminophenyl)-N-methyl-1,2-dihydro-4-hydroxy-1-methyl-2-oxo-quinoline-3-carboxamide] | potentiate significantly | significant enhancing effect |  | 
C=CCn1c(=O)c(C(=O)N(C)c2ccc(N(C)C)cc2)c(O)c2ccccc21 [20:39, N-(4-dimethylaminophenyl)-N-methyl-1-allyl-1,2-dihydro-4-hydroxy-2-oxo-quinoline-3-carboxamide] | potentiate significantly | significant enhancing effect |  | 
CN(C(=O)c1c(O)c2cccc3c2n(c1=O)CC3)c1ccccc1 [21:3, N-methyl-N-phenyl-1,2-dihydro-1,8-ethylene-4-hydroxy-2-oxo-quinoline-3-carboxamide] | potentiate significantly | significant enhancing effect |  | 
CCCCN(C(=O)c1c(O)c2ccccc2n(C)c1=O)c1ccccc1 [21:8, N-(n-butyl)-N-phenyl-1,2-dihydro-4-hydroxy-1-methyl-2-oxo-quinoline-3-carboxamide] | potentiate significantly | significant enhancing effect |  | 
CN(C)c1ccc(N(C)C(=O)c2c(O)c3ccccc3n(C)c2=O)cc1 [21:10, N-(4-dimethylaminophenyl)-N-methyl-1,2-dihydro-4-hydroxy-1-methyl-2-oxo-quinoline-3-carboxamide] | potentiate significantly | significant enhancing effect |  | 
CN(C(=O)c1c(O)c2ccccc2n(C)c1=O)c1ccc(O)cc1 [21:11, N-(4-hydroxyphenyl)-N-methyl-1,2-dihydro-4-hydroxy-1-methyl-2-oxo-quinoline-3-carboxamide] |  |  | significant potentiating effect | change in vivo at 10 mg/kg ([2]; 10 mg/kg p.o., once daily day 10 to day 13, vs control, preliminary): 34%
C=CCN(C(=O)c1c(O)c2ccccc2n(C)c1=O)c1ccccc1 [21:12, N-allyl-N-phenyl-1,2-dihydro-4-hydroxy-1-methyl-2-oxo-quinoline-3-carboxamide] | potentiate significantly | significant enhancing effect |  | 
CCN(C(=O)c1c(OC)c2c(F)cccc2n(C)c1=O)c1ccc(OC)c(OC)c1 [21:16, N-(3,4-dimethoxyphenyl)-N-ethyl-1,2-dihydro-5-fluoro-4-methoxy-1-methyl-2-oxo-quinoline-3-carboxamide] | potentiate significantly | significant enhancing effect |  | 
COc1cccc(N(C)C(=O)c2c(O)c3cc(C)ccc3n(C(C)C)c2=O)c1 [21:17, N-(3-methoxyphenyl)-N-methyl-1,2-dihydro-4-hydroxy-1-isopropyl-6-methyl-2-oxo-quinoline-3-carboxamide] |  | significant enhancing effect | significant potentiating effect | 
CN(C(=O)c1c(O)c2ccccc2n(-c2ccc(F)cc2)c1=O)c1ccc(N2CCCC2)cc1 [21:19, N-methyl-N-(4-pyrrolidinophenyl)-1-(4-fluorophenyl)-1,2-dihydro-4-hydroxy-2-oxo-quinoline-3-carboxamide] |  |  | significant potentiating effect | 
CN(C(=O)c1c(O)c2cccc3c2n(c1=O)CC3)c1cnccn1 [21:20, N-methyl-N-pyrazinyl-1,2-dihydro-1,8-ethylene-4-hydroxy-2-oxo-quinoline-3-carboxamide] | potentiate significantly | significant enhancing effect |  | 
CN(C(=O)c1c(O)c2ccccc2n(C)c1=O)c1nccs1 [21:21, N-methyl-N-2-thiazolyl-1,2-dihydro-4-hydroxy-1-methyl-2-oxo-quinoline-3-carboxamide] | potentiate significantly | significant enhancing effect |  | 
CN(C(=O)c1c(O)c2ccccc2n(C)c1=O)c1cnccn1 [21:23, N-methyl-N-pyrazinyl-1,2-dihydro-4-hydroxy-1-methyl-2-oxo-quinoline-3-carboxamide] |  | significant enhancing effect | significant potentiating effect | 
Cc1cc(N(C)C(=O)c2c(O)c3cc(Cl)ccc3n(C)c2=O)sn1 [21:24, N-methyl-N-(3-methyl-5-isothiazolyl)-6-chloro-1,2-dihydro-4-hydroxy-1-methyl-2-oxo-quinoline-3-carboxamide] |  | significant enhancing effect | significant potentiating effect | 
CCN(C(=O)c1c(O)c2cc(N(C)C)ccc2n(C)c1=O)c1ccccn1 [21:26, N-ethyl-N-2-pyridyl-1,2-dihydro-6-dimethylamino-4-hydroxy-1-methyl-2-oxo-quinoline-3-carboxamide] |  | significant enhancing effect | significant potentiating effect | 
COc1ccc(N(C)C(=O)c2c(O)c3cccc4c3n(c2=O)CC4)cc1 [21:28, N-(4-methoxyphenyl)-N-methyl-1,2-dihydro-1,8-ethylene-4-hydroxy-2-oxo-quinoline-3-carboxamide] |  | significant enhancing effect | significant potentiating effect | 
CN(C)c1ccc(N(C)C(=O)c2c(O)c3cccc4c3n(c2=O)CC4)cc1 [21:30, N-(4-dimethylaminophenyl)-N-methyl-1,2-dihydro-1,8-ethylene-4-hydroxy-2-oxo-quinoline-3-carboxamide] |  | significant enhancing effect | significant potentiating effect | 
CN(C(=O)c1c(O)c2cccc3c2n(c1=O)CC3)c1nccs1 [21:31, N-methyl-N-2-thiazolyl-1,2-dihydro-1,8-ethylene-4-hydroxy-2-oxo-quinoline-3-carboxamide] |  | significant enhancing effect | significant potentiating effect | 
CCN(C(=O)c1c(O)c2cccc3c2n(c1=O)CCC3)c1ccccn1 [21:33, N-ethyl-N-2-pyridyl-1,2-dihydro-4-hydroxy-2-oxo-1,8-trimethylene-quinoline-3-carboxamide] |  | significant enhancing effect | significant potentiating effect | 
CC(C)(S)[C@@H](N)C(=O)O [Penicillamine, penicillamine, reference compound] |  |  |  | change in vivo at 40 mg/kg ([3]; Rattus norvegicus, po, 336 h, read-out: Increase of the volume of the left foot): 0%; change in vivo at 10 mg/kg [2]: 17%
